From patent US8110585B2, “Bicyclic compound and pharmaceutical use thereof” (Takeda Pharmaceutical Company Limited, priority 2007, dated 2012)

Experiments:
[1] = target: T1, human melatonin 1 receptors (human MT1 receptors) (Homo sapiens, UniProt P48039); experiment: Melatonin receptor binding inhibitory test, 2-[125I] Iodomelatonin, MT1; conditions: membrane fraction of CHO-hMelR7 cells, 25° C. for 2.5 hr, read-out: binding inhibitory activity as IC50 value for MT1
T1 construct: expressed in transfected cells; membrane fraction
Experimental: (§1) Melatonin Receptor Binding Inhibitory Test
(1) Preparation of CHO-hMelR7 Cells expressing Human Melatonin 1 Receptors
A cDNA fragment (SEQ ID NO: 1) encoding full-length of human melatonin 1 receptors (human MT1 receptors) was incorporated into expression vector pAKKO-111H (former name pAKKO1.11H; Biochim Biophys Acta. Vol. 1219(2), pp. 251-259, 1994) to give plasmid pAKKO-hMelR7 for animal cell expression. CHO/dhfr-cells (ATCC, #CRL-9096) were plated at a concentration of 0.3×10^6 cells/dish in a 6 cm culture dish (Becton Dickinson), and cultured under the conditions of 37° C., 5% CO2 for 48 hr. The cells were transfected with pAKKO-hMelR7 plasmid DNA (5 μg) using Cellphect Transfection Kit (Amersham, #27-9268-01). The transfected cells were cultured in Dulbecco's modified Eagle medium (DMEM) (Sigma, #D6046) containing 10% dialyzed FBS (Biowest, #S180D), 1× Non-Essential Amino Acid (Invitrogen, #11140-050) and 50 μg/mL Gentamycin (Invitrogen, #15750-060), and the cell line that stably expressed the plasmid gene was selected. By a receptor binding assay using 2-[^125I] Iodomelatonin, CHO-hMelR7 cell line showing specific binding of 2-[^125I] Iodomelatonin was selected from the obtained clones.
(§2) (3) Preparation of Cellular Membrane Fraction of CHO Cell (CHO-hMelR7 and CHO-hMT2) Stably Expressing Human MT1 and MT2 Receptors
(§3) CHO-hMelR7 and CHO-hMT2 cells were plated using Cellfactory (Nunc, #170009) under the conditions of 1×10^8 cells/2000 mL/flask. The cells were grown to confluent, and recovered by the following method. As the medium for CHO-hMelR7 and CHO-hMT2, MEM a containing 10% FBS and penicillin/streptomycin was used. […]
(§4) The medium was discarded, cells were washed twice with 200 mL of EDTA/PBS(−), 200 mL of EDTA/PBS(−) was further added, and the cells were stood still at room temperature for 20 min until they were released. The cells were recovered in four 50 mL tubes (Becton Dickinson, #352070), and centrifuged at 1,500 rpm for 10 min at 4° C. using a low speed cooling centrifuge (Hitachi, CF7D2). The supernatant was discarded, the pellets in the four tubes were suspended in 10 mL of PBS(−), and combined in one tube (Becton Dickinson, #352070). The mixture was further centrifuged at 1,500 rpm for 10 min at 4° C., and the obtained pellets were suspended in 20 mL of ice-cooled homogenizing buffer [10 mM NaHCO3, 5 mM EDTA, Protease inhibitor Complete (Roche), pH 7.4]. The cell suspension was homogenized 3 times using a polytron homogenizer at 20,000 rpm for 30 sec. The obtained homogenate was centrifuged (2,000 rpm, 10 min, 4° C.) using a low speed cooling centrifuge. The supernatant was recovered in an ultracentrifugation tube and ultracentrifuged (40,000 rpm, 60 min, 4° C.) using an ultracentrifuge (Beckman, L-90K). To the obtained pellets was added a suspending buffer [50 mM Tris-HCl, 1 mM EDTA, Protease inhibitor Complete (Roche), pH 7.4], and the pellets were suspended by pipetting. The protein concentration of this suspension was measured, diluted to 2 mg/mL to give cellular membrane fractions of CHO-hMelR7 and CHO-hMT2 cells. The membrane fractions were dispensed to 1.5 mL tubes (Eppendorf, #0030120.086) by 100 μL, preserved in a freezer (−80° C.) and used for a binding assay. Protein was quantified using BCA protein assay kit (Pierce) with BSA as the standard.
(§5) (4) Preparation of Membrane Fraction Suspension
(§6) Immediately before use, the membrane fractions of CHO-hMelR7 and CHO-hMT2 cells of the above-mentioned (3) were diluted 20-fold with assay buffer (50 mM Tris-HCl, pH 7.7).
(§7) (5) Preparation of 2-[^125I] Iodomelatonin Solution
(§8) 2-[^125I] Iodomelatonin (#NEX236, PerkinElmer) was diluted with the assay buffer to 400 pM for MT1 and 1 nM for MT2.
The assay buffer (80 μL) of the above-mentioned (4) was added to each well of a 96-well plate (type 3363, Corning). Then, a test compound (compound solution diluted with DMSO to 200-fold of the final measurement concentration) was added by 2 μL. […]

[2] = target: T2, human melatonin 2 receptors (human MT2 receptors) (Homo sapiens, UniProt P49286); experiment: Melatonin receptor binding inhibitory test, 2-[125I] Iodomelatonin, MT2; conditions: membrane fraction of CHO-hMT2 cells, 25° C. for 2.5 hr, read-out: binding inhibitory activity as IC50 value for MT2
T2 construct: expressed in transfected cells; membrane fraction
T2 sequence (P49286 1-362): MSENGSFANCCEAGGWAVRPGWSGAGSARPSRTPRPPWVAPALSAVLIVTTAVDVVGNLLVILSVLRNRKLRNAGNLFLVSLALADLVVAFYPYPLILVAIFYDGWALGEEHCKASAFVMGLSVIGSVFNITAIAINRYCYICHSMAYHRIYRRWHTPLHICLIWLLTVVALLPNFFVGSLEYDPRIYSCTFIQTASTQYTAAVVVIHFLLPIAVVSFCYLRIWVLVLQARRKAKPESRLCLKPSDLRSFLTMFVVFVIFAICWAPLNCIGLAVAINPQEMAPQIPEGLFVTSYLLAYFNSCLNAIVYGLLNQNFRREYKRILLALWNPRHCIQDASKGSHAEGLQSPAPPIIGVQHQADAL
Experimental: as §1
(2) Preparation of CHO-hMT2 Cells Expressing Human Melatonin 2 Receptors
A cDNA fragment (SEQ ID NO: 2) encoding full-length of human melatonin 2 receptors (human MT2 receptors) was incorporated into expression vector pCMV-Script (Stratagene, #212220) to give the plasmid that was pCMV-human MT2 receptors expression vector for animal cell expression. CHO-K1 cells (ATCC, #CCL-61) were plated at the concentration of 1.5×10^5 cells/cm^2 in a 6 well plate (ASAHI TECHNO GLASS), and cultured under the conditions of 37° C., 5% CO2 for 24 hr. For gene transfection, solution obtained by blending pCMV-human MT2 receptors expression vector (1.9 μg), Lipofectamine Transfection Reagent (Invitrogen, #18324-012) (11.3 μL) and Minimum Essential Medium Eagle (MEM) medium (Sigma, M8042) (93.8 μL), and reacting at room temperature for 20 min was added to the cells per one well. The transfected cells were cultured in MEM medium containing 10% FBS (Life Technology) and 300 μg/mL Geneticin (GIBCO, #10131), and the cell line that stably expressed the plasmid gene was selected. By a receptor binding assay using 2-[^125I] Iodomelatonin, CHO-hMT2 cell line showing specific binding of 2-[^125I] Iodomelatonin was selected from the obtained clones.
as §2, §3, §4, §5, §6, §7, §8
The assay buffer (80 μL) of the above-mentioned (4) was added to each well of a 96-well plate (type 3363, Corning). […]

T1 sequence (P48039 whole entry): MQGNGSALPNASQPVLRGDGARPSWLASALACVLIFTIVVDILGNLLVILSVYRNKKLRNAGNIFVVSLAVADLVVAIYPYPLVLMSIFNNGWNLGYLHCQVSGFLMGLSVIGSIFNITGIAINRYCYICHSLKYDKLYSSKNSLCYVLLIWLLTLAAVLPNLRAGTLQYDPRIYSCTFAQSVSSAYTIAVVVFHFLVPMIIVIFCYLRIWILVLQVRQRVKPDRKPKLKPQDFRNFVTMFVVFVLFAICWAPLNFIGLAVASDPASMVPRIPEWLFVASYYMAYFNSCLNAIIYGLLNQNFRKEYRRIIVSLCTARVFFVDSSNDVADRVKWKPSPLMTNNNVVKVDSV

| Compound | IC50 [1] [nM] | IC50 [2] [nM] | melting point [°C] |
| --- | --- | --- | --- |
| CC(=O)NC[C@@H]1C[C@H]1c1cccc2nn(C)cc12 (relative stereo) [Example 1, trans-N-{[2-(2-methyl-2H-indazol-4-yl)cyclopropyl]methyl}acetamide] | ≤ 100 | ≤ 100 | 153 to 154 |
| CC(=O)NCC1CC1c1cccc2nc(C)sc12 (stereo not drawn) [Example 58, N-{[2-(2-methyl-1,3-benzothiazol-7-yl)cyclopropyl]methyl}acetamide] | ≤ 100 | ≤ 100 | 96 to 98 |
| CC(=O)NCC1CC1c1cccc2nscc12 (stereo not drawn) [Example 62, N-{[2-(2,1-benzisothiazol-4-yl)cyclopropyl]methyl}acetamide] | ≤ 100 | ≤ 100 | 96 to 97 |
| Cc1cc2c([C@@H]3C[C@H]3CNC(=O)C3CC3)cccn2n1 [Example 49, N-{[(1R,2R)-2-(2-methylpyrazolo[1,5-a]pyridin-4-yl)cyclopropyl]methyl}cyclopropanecarboxamide] | ≤ 100 | ≤ 100 | 127 to 129 |
| CC(=O)NC[C@@H]1C[C@H]1c1cccc2nn(C)c(F)c12 [Example 19, N-{[(1R,2R)-2-(3-fluoro-2-methyl-2H-indazol-4-yl)cyclopropyl]methyl}acetamide] | ≤ 100 | ≤ 100 | 138 to 139 |
| CCC(=O)NCC1CC1c1cccc2nc(C)cn12 (stereo not drawn) [Example 53, N-{[2-(2-methylimidazo[1,2-a]pyridin-5-yl)cyclopropyl]methyl}propanamide] | ≤ 100 | ≤ 100 | 88 to 90 |
| CC(=O)NCC1CC1c1cccc2nc(C)cn12 (stereo not drawn) [Example 52, N-{[2-(2-methylimidazo[1,2-a]pyridin-5-yl)cyclopropyl]methyl}acetamide] | ≤ 100 | ≤ 100 | 170 to 171 |
| CCC(=O)NCC1CC1c1cccc2nn(CC)cc12 (stereo not drawn) [Example 17, N-{[2-(2-ethyl-2H-indazol-4-yl)cyclopropyl]methyl}propanamide] | ≤ 100 | ≤ 100 | 114 to 115 |
| CC(=O)NCC1CC1c1c(C2CC2)ccc2nn(C)cc12 (stereo not drawn) [Example 33, N-{[2-(5-cyclopropyl-2-methyl-2H-indazol-4-yl)cyclopropyl]methyl}acetamide] | ≤ 100 | ≤ 100 | 102 to 103 |
| CC(=O)NCC1CC1c1c(-c2ccccc2)ccc2nn(C)cc12 (stereo not drawn) [Example 34, N-{[2-(2-methyl-5-phenyl-2H-indazol-4-yl)cyclopropyl]methyl}acetamide] | ≤ 100 | ≤ 100 | 156 to 158 |
| CC(=O)NCC1CC1c1c(Br)ccc2nn(C)cc12 (stereo not drawn) [Example 29, N-{[2-(5-bromo-2-methyl-2H-indazol-4-yl)cyclopropyl]methyl}acetamide] | ≤ 100 | ≤ 100 | 135 to 137 |
| CC(=O)NC[C@H]1C[C@@H]1c1c(F)ccc2nn(C)cc12 [Example 24, N-{[(1S,2S)-2-(5-fluoro-2-methyl-2H-indazol-4-yl)cyclopropyl]methyl}acetamide] | ≤ 100 | ≤ 100 | 120 |
| CCC(=O)NC[C@@H]1C[C@@H]1c1cccc2nn(C)cc12 (relative stereo) [Example 14, cis-N-{[2-(2-methyl-2H-indazol-4-yl)cyclopropyl]methyl}propanamide] | ≤ 100 | ≤ 100 | 155 to 156 |
| CCCC(=O)NC[C@@H]1C[C@H]1c1cccn2nc(C)cc12 (relative stereo) [Example 45, trans-N-{[2-(2-methylpyrazolo[1,5-a]pyridin-4-yl)cyclopropyl]methyl}butanamide] | ≤ 100 | ≤ 100 | 82 to 84 |

Now from value to compound:

| IC50 [1] [nM] | IC50 [2] [nM] | melting point [°C] | Compound |
| --- | --- | --- | --- |
| ≤ 100 | ≤ 100 | 136 to 138 | CC(=O)NCC1CC1c1c(-c2cccnc2)ccc2nn(C)cc12 (stereo not drawn) [Example 35, N-{[2-(2-methyl-5-pyridin-3-yl-2H-indazol-4-yl)cyclopropyl]methyl}acetamide] |
| ≤ 100 | ≤ 100 | 189 to 192 | CC(=O)NCC1CC1c1c(C#N)ccc2nn(C)cc12 (stereo not drawn) [Example 36, N-{[2-(5-cyano-2-methyl-2H-indazol-4-yl)cyclopropyl]methyl}acetamide] |
| ≤ 100 | ≤ 100 | 147 to 148 | CC(=O)NCC1CC1c1ccc(F)c2nn(C)cc12 (stereo not drawn) [Example 38, N-{[2-(7-fluoro-2-methyl-2H-indazol-4-yl)cyclopropyl]methyl}acetamide] |
| ≤ 100 | ≤ 100 | 155 to 159 | CCn1cc2c(C3CC3CNC(C)=O)cccc2n1 (stereo not drawn) [Example 16, N-{[2-(2-ethyl-2H-indazol-4-yl)cyclopropyl]methyl}acetamide] |
| ≤ 100 | ≤ 100 | 153 to 155 | CC(=O)NCC1CC1c1ccc(Cl)c2nn(C)cc12 (stereo not drawn) [Example 39, N-{[2-(7-chloro-2-methyl-2H-indazol-4-yl)cyclopropyl]methyl}acetamide] |
| ≤ 100 | ≤ 100 | 59 to 61 | CCC(=O)NCC1CC1c1cccc2nc(C)sc12 (stereo not drawn) [Example 59, N-{[2-(2-methyl-1,3-benzothiazol-7-yl)cyclopropyl]methyl}propanamide] |
